In the experiment the target is T1, Gag-Pol polyprotein [588-1027]/[588-1147] (Human immunodeficiency virus 1, UniProt P04585).
T1 construct: 588-1027; 588-1147
As to the kind of experiment: HIV-1 RT Assay. Particulars: pH 8.2. The source says: The IC50 of reverse transcriptase is the concentration that inhibits 50% of recombinant HIV-1 RT RNA-directed DNA polymerase activity in vitro.

Experimental findings from BindingDB's records for doi:10.1021/jm00041a023 (Merck Research Laboratories, 1994) are described below.

The IC50 is the concentration at which inhibition is half-maximal. Lower therefore signals higher potency.

`O=C1Nc2ccc(Cl)cc2C(C#Cc2cc([N+](=O)[O-])ccn2)(C2CC2)N1` (stereo unspecified) [6-chloro-4-cyclopropyl-4-[2-(4-nitropyridin-2-yl)ethynyl]-1,2,3,4-tetrahydroquinazolin-2-one] had an IC50 greater than 10 µM.
